Data published in the supplement of paper PMC10307832.

Columns and labels:
Assay in all cases: relative viability (nuclei count vs DMSO), 5 days (fraction); higher = more cells survive
201T = system: 201T
How it was run: (§1)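 For relative viability, nuclei counts in treated wells were divided by those in vehicle wells. Lung cancer cell lines had been pin-tool dosed in 1536-well plates the day after seeding and cultured for 5 days, then fixed and stained in one step (final 0.05% Triton X-100, 1% formaldehyde, 1 ug/ml Hoechst) and imaged at 4×. Doses were one drug alone or a fixed anchor-drug dose plus five library-drug doses (not always all listed) in √10 steps, and values are duplicate-plate medians.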

A-427 = system: A-427
How it was run: as §1

ABC-1 = system: ABC-1
How it was run: as §1

BEN = system: BEN
How it was run: as §1

CAL-12T = system: CAL-12T
How it was run: as §1

H3255 = system: H3255
How it was run: as §1

HCC-15 = system: HCC-15
How it was run: as §1

LC-2-ad = system: LC-2-ad
How it was run: as §1

LCLC-97TM1 = system: LCLC-97TM1
How it was run: as §1

NCI-H1650 = system: NCI-H1650
How it was run: as §1

NCI-H1651 = system: NCI-H1651
How it was run: as §1

NCI-H1792 = system: NCI-H1792
How it was run: as §1

NCI-H1915 = system: NCI-H1915
How it was run: as §1

NCI-H1944 = system: NCI-H1944
How it was run: as §1

NCI-H2023 = system: NCI-H2023
How it was run: as §1

NCI-H2087 = system: NCI-H2087
How it was run: as §1

NCI-H441 = system: NCI-H441
How it was run: as §1

NCI-H460 = system: NCI-H460
How it was run: as §1

NCI-H520 = system: NCI-H520
How it was run: as §1

NCI-H596 = system: NCI-H596
How it was run: as §1

NCI-H650 = system: NCI-H650
How it was run: as §1

NCI-H661 = system: NCI-H661
How it was run: as §1

NCI-H727 = system: NCI-H727
How it was run: as §1

PC-3 [JPC-3] = system: PC-3 [JPC-3]
How it was run: as §1

`Clc1ccc(Nc2nnc(Cc3ccncc3)c3ccccc23)cc1` [Vatalanib] + CCNC(=O)c1noc(-c2cc(C(C)C)c(O)cc2O)c1-c1ccc(CN2CCOCC2)cc1 [Luminespib] (partner 0.01 µM) showed a relative viability (201T; first compound 0.04 µM) of 1.07, a relative viability (201T; first compound 0.1265 µM) of 1.05 and a relative viability (201T; first compound 0.4 µM) of 1.13. The relative viability (201T; first compound 1.265 µM) was 1.04, the relative viability (201T; first compound 4 µM) was 1.13 and the relative viability (A-427; first compound 0.04 µM) was 0.861. It also gave a relative viability (A-427; first compound 0.1265 µM) of 0.909, a relative viability (A-427; first compound 0.4 µM) of 1.03 and a relative viability (A-427; first compound 1.265 µM) of 0.927. For the same compound, the relative viability (A-427; first compound 4 µM) was 0.948, the relative viability (ABC-1; first compound 0.04 µM) was 0.822 and the relative viability (ABC-1; first compound 1.265 µM) was 0.63. It also gave a relative viability (ABC-1; first compound 4 µM) of 0.507, a relative viability (BEN; first compound 0.04 µM) of 0.218 and a relative viability (BEN; first compound 0.1265 µM) of 0.265. The relative viability (BEN; first compound 0.4 µM) was 0.514, the relative viability (BEN; first compound 1.265 µM) was 0.399 and the relative viability (BEN; first compound 4 µM) was 0.404. For the same compound, the relative viability (CAL-12T; first compound 0.04 µM) was 0.722, the relative viability (CAL-12T; first compound 0.1265 µM) was 0.406 and the relative viability (CAL-12T; first compound 0.4 µM) was 0.502. It also gave a relative viability (CAL-12T; first compound 1.265 µM) of 0.255, a relative viability (CAL-12T; first compound 4 µM) of 0.513 and a relative viability (H3255; first compound 0.04 µM) of 0.881. It also gave a relative viability (H3255; first compound 0.1265 µM) of 0.91, a relative viability (H3255; first compound 0.4 µM) of 0.82 and a relative viability (H3255; first compound 1.265 µM) of 0.743. It also gave a relative viability (H3255; first compound 4 µM) of 0.838, a relative viability (HCC-15; first compound 0.04 µM) of 0.42 and a relative viability (HCC-15; first compound 0.1265 µM) of 0.457. The relative viability (HCC-15; first compound 0.4 µM) was 0.181, the relative viability (HCC-15; first compound 1.265 µM) was 0.234 and the relative viability (HCC-15; first compound 4 µM) was 0.235. For the same compound, the relative viability (LC-2-ad; first compound 0.04 µM) was 1.1, the relative viability (LC-2-ad; first compound 0.1265 µM) was 1.04 and the relative viability (LC-2-ad; first compound 1.265 µM) was 0.997. The relative viability (LC-2-ad; first compound 4 µM) was 0.948, the relative viability (LCLC-97TM1; first compound 0.04 µM) was 0.715 and the relative viability (LCLC-97TM1; first compound 0.1265 µM) was 0.808. It also gave a relative viability (LCLC-97TM1; first compound 0.4 µM) of 0.741, a relative viability (LCLC-97TM1; first compound 1.265 µM) of 0.725 and a relative viability (LCLC-97TM1; first compound 4 µM) of 0.951. For the same compound, the relative viability (NCI-H1650; first compound 0.04 µM) was 0.21, the relative viability (NCI-H1650; first compound 0.1265 µM) was 0.193 and the relative viability (NCI-H1650; first compound 0.4 µM) was 0.206. It also gave a relative viability (NCI-H1650; first compound 1.265 µM) of 0.203, a relative viability (NCI-H1650; first compound 4 µM) of 0.208 and a relative viability (NCI-H1651; first compound 0.04 µM) of 0.852. It also gave a relative viability (NCI-H1651; first compound 0.1265 µM) of 0.891, a relative viability (NCI-H1651; first compound 0.4 µM) of 0.878 and a relative viability (NCI-H1651; first compound 1.265 µM) of 0.869. It also gave a relative viability (NCI-H1651; first compound 4 µM) of 0.915, a relative viability (NCI-H1792; first compound 0.04 µM) of 0.475 and a relative viability (NCI-H1792; first compound 0.1265 µM) of 0.492. It also gave a relative viability (NCI-H1792; first compound 0.4 µM) of 0.4, a relative viability (NCI-H1792; first compound 1.265 µM) of 0.564 and a relative viability (NCI-H1792; first compound 4 µM) of 0.387. It also gave a relative viability (NCI-H1915; first compound 0.04 µM) of 0.847, a relative viability (NCI-H1915; first compound 0.1265 µM) of 0.7 and a relative viability (NCI-H1915; first compound 0.4 µM) of 0.828. The relative viability (NCI-H1915; first compound 1.265 µM) was 0.846, the relative viability (NCI-H1915; first compound 4 µM) was 0.758 and the relative viability (NCI-H1944; first compound 0.04 µM) was 0.796. For the same compound, the relative viability (NCI-H1944; first compound 0.1265 µM) was 0.687, the relative viability (NCI-H1944; first compound 0.4 µM) was 0.845 and the relative viability (NCI-H1944; first compound 1.265 µM) was 0.679. For the same compound, the relative viability (NCI-H1944; first compound 4 µM) was 0.752, the relative viability (NCI-H2023; first compound 0.04 µM) was 0.58 and the relative viability (NCI-H2023; first compound 0.1265 µM) was 0.66. It also gave a relative viability (NCI-H2023; first compound 0.4 µM) of 0.762, a relative viability (NCI-H2023; first compound 1.265 µM) of 0.537 and a relative viability (NCI-H2023; first compound 4 µM) of 0.688. It also gave a relative viability (NCI-H2087; first compound 0.04 µM) of 0.152, a relative viability (NCI-H2087; first compound 0.1265 µM) of 0.157 and a relative viability (NCI-H2087; first compound 0.4 µM) of 0.184. The relative viability (NCI-H2087; first compound 1.265 µM) was 0.173, the relative viability (NCI-H2087; first compound 4 µM) was 0.159 and the relative viability (NCI-H441; first compound 0.04 µM) was 0.367. It also gave a relative viability (NCI-H441; first compound 0.1265 µM) of 0.251, a relative viability (NCI-H441; first compound 0.4 µM) of 0.382 and a relative viability (NCI-H441; first compound 1.265 µM) of 0.377. It also gave a relative viability (NCI-H441; first compound 4 µM) of 0.354, a relative viability (NCI-H460; first compound 0.04 µM) of 0.0407 and a relative viability (NCI-H460; first compound 0.1265 µM) of 0.0276. It also gave a relative viability (NCI-H460; first compound 0.4 µM) of 0.0374, a relative viability (NCI-H460; first compound 1.265 µM) of 0.0261 and a relative viability (NCI-H460; first compound 4 µM) of 0.0364. It also gave a relative viability (NCI-H520; first compound 0.04 µM) of 0.199, a relative viability (NCI-H520; first compound 0.1265 µM) of 0.19 and a relative viability (NCI-H520; first compound 0.4 µM) of 0.22. The relative viability (NCI-H520; first compound 1.265 µM) was 0.221, the relative viability (NCI-H520; first compound 4 µM) was 0.246 and the relative viability (NCI-H596; first compound 0.04 µM) was 0.955. The relative viability (NCI-H596; first compound 0.1265 µM) was 0.941, the relative viability (NCI-H596; first compound 0.4 µM) was 0.953 and the relative viability (NCI-H596; first compound 1.265 µM) was 1.01. The relative viability (NCI-H596; first compound 4 µM) was 1.19, the relative viability (NCI-H650; first compound 0.04 µM) was 0.821 and the relative viability (NCI-H650; first compound 0.1265 µM) was 0.628. It also gave a relative viability (NCI-H650; first compound 1.265 µM) of 0.736, a relative viability (NCI-H650; first compound 4 µM) of 0.781 and a relative viability (NCI-H661; first compound 0.04 µM) of 0.887. It also gave a relative viability (NCI-H661; first compound 0.1265 µM) of 0.91, a relative viability (NCI-H661; first compound 0.4 µM) of 0.998 and a relative viability (NCI-H661; first compound 1.265 µM) of 0.89. It also gave a relative viability (NCI-H661; first compound 4 µM) of 0.931, a relative viability (NCI-H727; first compound 0.04 µM) of 0.339 and a relative viability (NCI-H727; first compound 0.1265 µM) of 0.289. The relative viability (NCI-H727; first compound 0.4 µM) was 0.329, the relative viability (NCI-H727; first compound 1.265 µM) was 0.635 and the relative viability (NCI-H727; first compound 4 µM) was 0.392. The relative viability (PC-3 [JPC-3]; first compound 0.04 µM) was 0.697, the relative viability (PC-3 [JPC-3]; first compound 0.1265 µM) was 0.688 and the relative viability (PC-3 [JPC-3]; first compound 0.4 µM) was 0.7. It also gave a relative viability (PC-3 [JPC-3]; first compound 1.265 µM) of 0.706 and a relative viability (PC-3 [JPC-3]; first compound 4 µM) of 0.723.
